The results in this text go back to PubChem BioAssay AID179 (DTP/NCI, 2004).

In this experiment the test system is CEM cells HIV-1 protection, formazan growth assay. Briefly: NCI AIDS Antiviral Assay. Particulars: for IC50: measured here: growth of uninfected CEM cells. Summed up:
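CEM (human) cells, HIV-1 infected vs uninfected, 5-point dosing, formazan growth read-out. Retest threshold 50% protection.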

“And” between values parts separate entries of the source, which are not always exact repeats. Equal values may be shown once. The source made the active and inactive calls.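 The calls were made as follows: active = compounds giving half or more protection of infected cells from virus-caused growth loss, again on retest; inactive = the rest.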 Where a SMILES comes first, the peptide text is derived from it. Some results are limits rather than exact numbers.

As for `CCOC(=O)C(=O)Nc1nc2ccc(OC)cc2s1`, the EC50 was above 447 µM and the IC50 was above 447 µM. As to `O=C(NCc1ccccc1)c1n[nH][nH]c1=O`, the EC50 was above 200 µM and the IC50 was above 200 µM. Consider `CCO/C(O)=c1/s/c(=C2/SC(=S)N(c3ccc(C)cc3)C2=O)n(-c2ccccc2)c1=N`, for which the EC50 is above 1.58 µM and the IC50 is above 1.58 µM.

For `CSc1ncc2c(C#N)c3[nH]c4ccccc4n3c(=O)c2n1`, the EC50 was above 200 µM and the IC50 is 6.46 µM. On the same counts, the results for `O=C(CC(=O)c1ccccc1)CC(O)(c1ccccc1)c1ccccc1` are above 11 µM and above 11 µM. With `CCC(=O)Nc1nc2c(ncn2C2OC(COC(=O)CC)C(OC(=O)CC)C2OC(=O)CC)c(=O)[nH]1` (centres undefined), the EC50 was above 355 µM and the IC50 came out at 309 µM. Consider `O=c1cc(-c2ccccc2)oc2ccc(O)cc12`, for which the EC50 is above 200 µM and the IC50 was 67.6 µM. Consider `CCOC(=O)C(NC(=O)Nc1ccccc1)(Nc1cccc(Cl)c1)C(F)(F)F` (centres undefined), for which the EC50 is above 200 µM and the IC50 was found to be 195 µM.

Regarding `Cn1cccc(C(=O)c2ccccc2)c1=O`, the result was inactive. In the case of `Cc1ccc2ccc(=O)oc2c1`, the EC50 was above 309 µM and the IC50 is above 309 µM. On to `COC(=O)c1c(O)c(C#N)c2[nH]c3ccccc3n2c1=O`, for which the EC50 was above 100 µM and the IC50 was above 100 µM.

Take `CCC12CCCN(C1)C(=O)Cc1c([nH]c3ccccc13)C(=O)C2` (centres undefined): the EC50 is above 8.13 µM and the IC50 was above 8.13 µM. As to `CC(=O)OC1CC2OC(Cc3ccccc32)O1` (centres undefined), the EC50 was above 200 µM and the IC50 was above 200 µM. Turning to `COc1cc2c(oc(=O)c3cc4ccoc4c(OC)c32)c2cccc(O)c12`, the EC50 was above 1.45 µM and the IC50 is above 1.45 µM. Consider `CCC[CH2][Sn]1([CH2]CCC)[O]C(=O)c2cccnc2[O]1`, for which the EC50 is above 97.7 µM and the IC50 stood at 0.0977 µM. Take `O=C(NC(=Nc1ccccc1)SCSC(=Nc1ccccc1)NC(=O)c1ccccc1Cl)c1ccccc1Cl`: the EC50 was above 200 µM and the IC50 was found to be 30.9 µM.

With `O=C1NC(=S)N/C1=C\c1ccc(Cl)cc1`, the EC50 was above 200 µM and the IC50 worked out at 105 µM. `O=C1c2c(c3c4ccccc4n4c3c3c2c2ccccc2n3C/C=C\C4)C(=O)N1Cc1ccccc1`: the result was inactive. Consider `O=C(Cc1ccccc1)N=Nc1c(O)[nH]c2ccccc12`, for which the EC50 was above 200 µM and the IC50 was above 200 µM. `COc1nc(N)c(N=O)c(OCc2ccccc2)n1`: the EC50 is above 200 µM and the half-inhibitory concentration (IC50) came out at 3.98 µM. Regarding `COc1cc2c(cc1OC)OC(c1c(OC)ccc(OC)c1O)CC2` (centres undefined), the EC50 was above 100 µM and the IC50 is above 100 µM. As for `CN(C)CC/C(=N\Nc1c(F)c(F)c(F)c(F)c1F)c1ccccc1`, the outcome was inactive.

On to `COC(=O)c1ccc(NCc2cc(O)ccc2O)cc1`, for which the EC50 is above 200 µM and the IC50 was determined as 11.7 µM. With `C/C(CC(=O)Nc1cc(Cl)c(Cl)cc1Cl)=N\NC(N)=O`, the EC50 is above 21.4 µM and the IC50 came to 2.75 µM. On to `O=C1Nc2cccnc2NC2=C1CSC2`, for which the EC50 is above 200 µM and the IC50 was above 200 µM.

With `COC(=O)[C@H]1COC(=S)N1C(=O)[C@@H](C)[C@H](O)C(C)C`, the EC50 was above 631 µM and the IC50 was above 631 µM. For `Nc1nn2cc3c(nc2c1N=Nc1ccccc1)CCCC3`, the EC50 is above 200 µM and the IC50 stood at 4.47 µM. Turning to `C=CCOC1=C2CC[C@H](O)[C@@]2(C)CCC1=O`, the outcome was inactive. With `CC(=O)O[C@H]1CC[C@@]2(C)C(=CC[C@@H]3C2CC[C@@]2(C)C3CC[C@@H]2c2ncc(-c3ccccc3)s2)C1` (some centres undefined), the EC50 is above 52.5 µM and the IC50 is above 52.5 µM. As to `Cc1c2cc(O)c(=O)cc-2oc2cc(O)c(O)cc12`, the EC50 is above 200 µM; the IC50 was 12.6 µM and 39.8 µM. `CCCCCCC(c1ccc(O)c(C(=O)O)c1)c1ccc(O)c(C(=O)O)c1`: the EC50 was above 1000 µM and the IC50 turned out to be 166 µM. As for `O=C(/C=C/c1ccccc1)c1cc2c(cc1O)OCO2`, the EC50 is above 70.8 µM and the IC50 was 5.25 µM. `CCC(C)C(NC(=O)C(N)CCC(=O)O)C(=O)NC(CCCCN)C(=O)NCC(=O)NC(C(=O)NC(C(=O)NC(CC(=O)O)C(=O)NC(CC(C)C)C(=O)NCC(=O)NC(CCCCN)C(=O)O)C(C)O)C(C)O` (centres undefined) (H-EIKGTTDLGK-OH; configuration not given here): the result was inactive. As for `Cc1ccc(NC(=O)C(=O)CC(=O)c2c(C)n([O-])c3ccccc3[n+]2=O)cc1`, the EC50 was above 13.2 µM and the IC50 is above 13.2 µM. As for `COc1c2c3c4c(c(OC)c(=O)c5c(O)c(Br)c(OC)c(c6c(OC)c(Br)c(O)c(c1=O)c36)c54)C(C(C)=O)=C(C)C2`, the EC50 was above 13.8 µM and the IC50 was found to be 1.45 µM. For `Cc1c2c(n3c(nc4ccccc43)c1C#N)SCC2`, the EC50 was above 200 µM and the IC50 is above 200 µM. On to `COC(=O)C1CC2C=CC1N(C(=O)OCc1ccccc1)C2` (centres undefined), for which the EC50 is above 200 µM and the IC50 was found to be 170 µM.

Consider `CC(C)=Cc1cc(C(=O)Nc2ccc(Cl)c(Cl)c2)nc(N)n1`, for which the EC50 was above 741 µM and the IC50 amounted to 490 µM. `C[N+](C)(C)CCCCCCCCCC[N+](C)(C)C`: the EC50 was above 603 µM and the IC50 was above 603 µM. As for `C/C=C1\CN2CCC34c5ccccc5N5C(=O)CCC(C1CC23)C54` (centres undefined), the EC50 was above 42.7 µM and the IC50 is above 42.7 µM. Regarding `C(=C\c1ccccc1)/COc1ccccc1C(N1CCOCC1)n1nc2ccccc2n1` (centres undefined), the EC50 was above 200 µM and the IC50 is 6.76 µM.

For `O=CC(=O)C(C(=O)O)[N+](=O)[O-]` (centres undefined), the EC50 is above 200 µM and the IC50 is above 200 µM.

Consider `CCOC(=O)C1CC(C(=O)c2ccccc2)N2c3ccccc3-c3ccccc3C12` (centres undefined), for which the EC50 was above 200 µM and the IC50 is 8.51 µM.

For the molecule `O=C(CN1CCCCC1)c1ccc2[nH]c(=O)oc2c1`, the EC50 is above 200 µM and the IC50 is 129 µM. Regarding `O=C1C2c3[nH]c4ccccc4c3[C@@H]3CCCCCCCCCCC3C2C(=O)N1c1ccccc1` (some centres undefined), the result was inactive. As to `Cc1c(Cl)ccc2c1NC(=O)C2(O)CC(=O)c1cccc2ccccc12` (centres undefined), the EC50 is above 97.7 µM and the IC50 is above 97.7 µM. In the case of `Cn1c2ccccc2c2nnc(NCCCO)nc21`, the EC50 is above 200 µM and the IC50 turned out to be 148 µM. `O=C(C(/C=N/C(=S)NC1C(=O)Nc2ccccc21)=C(/O)c1ccccc1)c1ccccc1` (centres undefined): the EC50 was above 200 µM and the IC50 came out at 41.7 µM.

`Cc1ccc(NC(=S)Nc2ccc(C)cn2)nc1`: the EC50 was above 200 µM and the IC50 is above 200 µM. `COc1ccc(C2Oc3cc(OC)c(O)c(C)c3[C@H]2C)cc1` (some centres undefined): the EC50 was above 45.7 µM and the IC50 came to 30.9 µM. Turning to `O=C1C2C=CC1C1C(=O)OC(=O)C21` (centres undefined), the result was inactive. Take `COc1cc(OC)c(C2c3cc4c(cc3OC(N3CCCC3)C2C)OCO4)c(OC)c1` (centres undefined): the EC50 was above 200 µM and the IC50 stood at 4.37 µM.

On to `O=C(OC(C(=O)O)C(OC(=O)c1ccccc1)C(=O)O)c1ccccc1` (centres undefined) (tested in a mixture with another compound), for which the EC50 is above 380 µM and the half-maximal inhibitory concentration (IC50) was 0.912 µM.
